Columns and labels:
Format in all cases: functional, cell-based
[1] = test system: MCF7; test: Cytotoxicity against human MCF7 cells by SRB assay
[2] = test system: HT-29; test: Cytotoxicity against human HT-29 cells by SRB assay
[3] = test system: HL-60; test: Cytotoxicity against human HL60 cells by SRB assay

SMILES	IC50 [1] [µM]	IC50 [2] [µM]	IC50 [3] [µM]
CC(C)(O)[C@@H]1CC[C@H]([C@@H]2[C@@H](O)C[C@]3(C)C4=CC[C@H]5C(C)(C)C(=O)CC[C@]5(C)[C@H]4CC[C@@]23C)[C@H]1O [TOOSENDANONE A]	< 10	< 10	< 10
CC(C)=CCCC(C(=O)O)[C@@H]1[C@@H](O)C[C@]2(C)C3=CC[C@H]4C(C)(C)[C@H](O)CC[C@]4(C)[C@H]3CC[C@@]12C (some centres not stated) [TOOSENDANIC ACID B]	< 10	< 10	< 10
COc1cccc2c1C(=O)c1c(O)c3c(c(O)c1C2=O)C[C@@](O)(C(=O)CO)C[C@@H]3O[C@H]1C[C@H](N)[C@H](O)[C@H](C)O1 [DOXORUBICIN]	0.12	0.33	0.016
CC(C)=CCCC(C(=O)O)[C@@H]1[C@@H](O)C[C@]2(C)C3=CC[C@H]4C(C)(C)[C@@H](O)CC[C@]4(C)[C@H]3CC[C@@]12C (some centres not stated) [TOOSENDANIC ACID A]	< 10	< 10	< 10

Reference: ChEMBL document CHEMBL1152324, “Protolimonoids from Melia toosendan” (J Nat Prod, 2009)
